Results taken from patent US8815878B1, “Spiro hemiaminals for treating viral diseases” (NovaDrug, LLC, priority 2010, dated 2014).

System: Huh7-1 cells
Experiment: HCV Induced Cytotoxicity Test (Promega CytoTox 96 LDH release)
Assay type: cell-based, human
Conditions: 5 day HCV-infected Huh7-1 cultures
Description: Initially, 6×10^3 Huh7-1 cells are incubated overnight in each well of collagen-coated BioCoat 96-well plates (BD Biosciences, Bedford, Mass.) in 0.2 ml 10% medium composed of Dulbecco's modified Eagle's medium supplemented with 10% fetal bovine serum. Subsequently, at 2 day intervals, the cultures are replenished with fresh 0.2 ml 10% medium. After the cultures become confluent, they continue to be replenished at 2 day intervals with fresh 0.2 ml 10% medium that also includes 1% dimethyl sulfoxide (DMSO). After 20 days of these replenishments, the Huh7-1 cultures are incubated with fresh 1% medium (same as 10% medium except that the serum level is 1%) containing HCV at a multiplicity of infection (MOI) of 0.05 focus forming units (ffu)/cell. The HCV (JFH-1 wt Huh7) stock titer is 1.5×10^5 ffu/ml. The next day (day 1 post-infection) and 2 days later (day 3 post-infection) the media are replenished with fresh 1% medium containing the test compounds dissolved in DMSO. On the 5th day of treatment with the compounds, cell lysates are collected for RNA isolation and Real Time-quantitative Reverse Transcription Polymerase Chain Reaction (RT-qPCR) and culture media are collected for cytotoxicity analysis.
HCV Induced Cytotoxicity Test. To determine whether the compounds described herein are cytotoxic at the tested doses used, the Promega CytoTox 96 Non-Radioactive Cytotoxicity Assay kit (Promega, Madison, Wis.) is used. This kit measures lactate dehydrogenase (LDH) levels in the culture medium, which is released from cells due to plasma membrane integrity loss or necrosis. For this test, 50 uL samples of culture medium are collected from the same 5 day cultures used to examine the RNA levels shown previously.

[1] = concentration ranges of 2.5 to 20 μM

Compound | toxicity in the assay (LDH levels in the culture medium) (at 25 μM) | toxicity in the assay (LDH levels in the culture medium) [1]
Cc1ccc2occ(CN3C[C@H]4CC[C@]5(NC(=O)c6ccccc6N5)[C@H]4C3)c(=O)c2c1 [Example 3] | limited toxicity | little to no toxicity
O=C1N[C@]2(CC[C@@H]3CN(Cc4cnc(N5CCOCC5)nc4)C[C@@H]32)Nc2ccccc21 [Example 4] | – | little to no toxicity
O=C1N[C@]2(CC[C@@H]3CN(Cc4cc5c(cc4Cl)OCO5)C[C@@H]32)Nc2ccccc21 [Example 6] | limited toxicity | little to no toxicity
